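Five compound concentrations were applied to cells in 96-well plates for 48 hours; endpoints were derived by simple linear interpolation of the resulting dose-response curve. TGI denotes the concentration required for complete inhibition of growth.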

Some test systems named below: ACHN renal; HOP-92 NSCLC; MDA-N; MOLT-4 leukemia; NCI/ADR-RES ovarian; OVCAR-5 ovarian; RPMI-8226 leukemia; RXF 393 renal; SK-MEL-28 melanoma; SK-OV-3 ovarian.
Common to all, as to test: growth of human tumour cells (NCI), 48 h

As to `Cc1[nH]c(-c2ccccc2)c(-c2ccc(Cl)cc2)c1C(=O)ONC(=O)c1ccccc1`, the TGI in the assay on ACHN renal came out at 3.48 µM; in the assay with HOP-92 NSCLC it was 4.01 µM; in the assay with MDA-N, 4.45 µM; in the assay on MOLT-4 leukemia it was 6.97 µM; in the assay with NCI/ADR-RES ovarian, 14.2 µM; with OVCAR-5 ovarian, 20 µM. The TGI is greater than 48.4 µM in the assay on RPMI-8226 leukemia, 6.69 µM in the assay with RXF 393 renal, 24.9 µM in the assay on SK-MEL-28 melanoma and 32.4 µM with SK-OV-3 ovarian.
Regarding `O=C1[C@@H]2Cc3c([nH]c4ccccc34)C(C3CCCCC3)N2C(=O)[C@@H]2CCCN12` (stereo partly specified), the TGI in the assay with ACHN renal was greater than 100 µM; in the assay on HOP-92 NSCLC, 76.6 µM; with MDA-N, greater than 100 µM; in the assay on MOLT-4 leukemia it was 57 µM; in the assay with NCI/ADR-RES ovarian, 78.7 µM; in the assay with OVCAR-5 ovarian, greater than 100 µM. In addition, the TGI in the assay with RPMI-8226 leukemia is 51 µM; in the assay with RXF 393 renal, greater than 100 µM; in the assay with SK-MEL-28 melanoma it was greater than 100 µM; in the assay with SK-OV-3 ovarian, greater than 100 µM.
For `CSCCC(NC(=O)OC(C)(C)C)C(=O)NCCNc1ccc(NCCNC(=O)C(CCSC)NC(=O)OC(C)(C)C)c2c1C(=O)c1ccccc1C2=O` (stereo unspecified), the TGI was 30.3 µM in the assay with ACHN renal; 10.1 µM in the assay with HOP-92 NSCLC; 7.03 µM in the assay with MDA-N; 11.5 µM with MOLT-4 leukemia; greater than 100 µM with NCI/ADR-RES ovarian; 17.2 µM in the assay with OVCAR-5 ovarian. The TGI in the assay on RPMI-8226 leukemia turned out to be 12.2 µM; with RXF 393 renal it was 52.8 µM; in the assay with SK-MEL-28 melanoma, 3.69 µM; in the assay with SK-OV-3 ovarian, 32.9 µM.
As to `CN1CC(c2ccccc2)N(CCCCN2CC(c3ccccc3)N(C)CC2c2ccccc2)CC1c1ccccc1` (stereo unspecified), the TGI in the assay on ACHN renal, in the assay with HOP-92 NSCLC, in the assay on MDA-N, in the assay with MOLT-4 leukemia, in the assay with NCI/ADR-RES ovarian and with OVCAR-5 ovarian was greater than 100 µM throughout. For the same compound, the TGI was 71.1 µM in the assay on RXF 393 renal, greater than 100 µM with SK-MEL-28 melanoma and greater than 100 µM in the assay with SK-OV-3 ovarian.
In the case of `COC(=O)C(C)Sc1nc2cc(Cl)ccc2s1` (stereo unspecified), the TGI in the assay on ACHN renal, in the assay with HOP-92 NSCLC, with MDA-N, in the assay with MOLT-4 leukemia, in the assay with NCI/ADR-RES ovarian and in the assay with OVCAR-5 ovarian was greater than 100 µM in each case. Further, the TGI in the assay on RPMI-8226 leukemia, with RXF 393 renal, with SK-MEL-28 melanoma and in the assay with SK-OV-3 ovarian was greater than 100 µM throughout.
As for `CC(C)n1c(=O)n(-c2ccccc2)n(C(C)(C)C)c1=O`, the TGI in the assay with ACHN renal, with HOP-92 NSCLC, in the assay on MDA-N, in the assay on MOLT-4 leukemia, in the assay with NCI/ADR-RES ovarian and in the assay with OVCAR-5 ovarian was greater than 100 µM in each case. Besides, the TGI in the assay with RXF 393 renal, with SK-MEL-28 melanoma and in the assay on SK-OV-3 ovarian was greater than 100 µM throughout.
For `COc1ccc2c(c1)CCc1c-2n(CCN(C)C)c2ccc(OC)cc12`, the TGI is greater than 100 µM with ACHN renal; greater than 100 µM in the assay with HOP-92 NSCLC; 95.2 µM in the assay with MDA-N; 59.1 µM with MOLT-4 leukemia; 46.1 µM in the assay with NCI/ADR-RES ovarian; 51.6 µM in the assay on OVCAR-5 ovarian. The TGI was 65.9 µM with RPMI-8226 leukemia, 33.6 µM in the assay on SK-MEL-28 melanoma and 87.1 µM with SK-OV-3 ovarian.
Consider `Cc1ccc(O)c(C2=NNC(c3cccc(Br)c3)C2)c1` (stereo unspecified), for which the TGI with ACHN renal was greater than 100 µM; in the assay with HOP-92 NSCLC, 92.7 µM; in the assay with MDA-N it was greater than 100 µM; in the assay on MOLT-4 leukemia, greater than 100 µM; in the assay on NCI/ADR-RES ovarian, greater than 100 µM; in the assay with OVCAR-5 ovarian, greater than 100 µM. Besides, the TGI in the assay with RPMI-8226 leukemia, in the assay with RXF 393 renal and in the assay with SK-OV-3 ovarian was greater than 100 µM throughout.
Regarding `O=C1C=CC(=O)c2ncccc21`, the TGI was 7.98 µM in the assay on ACHN renal; 3.25 µM in the assay on HOP-92 NSCLC; 16.1 µM with MDA-N; greater than 24.1 µM in the assay on MOLT-4 leukemia; 36.1 µM with NCI/ADR-RES ovarian; 32.2 µM in the assay with OVCAR-5 ovarian. Besides, the TGI in the assay on RPMI-8226 leukemia is greater than 22 µM; in the assay on RXF 393 renal, 12.8 µM; with SK-MEL-28 melanoma, 11.2 µM; with SK-OV-3 ovarian, 37.2 µM.
As to `Cc1ccc(S(=O)(=O)N2CCN(CCN(C)CCN3CCN(S(=O)(=O)c4ccc(C)cc4)CC3)CC2)cc1`, the TGI with ACHN renal turned out to be 32.7 µM; in the assay on HOP-92 NSCLC, 35.6 µM; with MDA-N it was 39.7 µM; in the assay with MOLT-4 leukemia, 36 µM; with NCI/ADR-RES ovarian, 43.1 µM; with OVCAR-5 ovarian, 80.8 µM. Also, the TGI with RPMI-8226 leukemia amounted to 37 µM; in the assay on RXF 393 renal, 27.8 µM; in the assay with SK-MEL-28 melanoma, 31.4 µM; with SK-OV-3 ovarian it was 33.3 µM.
Take `CC(C)(C)N1Cc2ccccc2/C(=C/Sc2ccccc2)C1=O`: the TGI is 32 µM with ACHN renal; 27.8 µM in the assay with HOP-92 NSCLC; 21.8 µM in the assay with MDA-N; 48.4 µM with MOLT-4 leukemia; 33.6 µM with NCI/ADR-RES ovarian; 39.8 µM in the assay on OVCAR-5 ovarian. The TGI in the assay on RPMI-8226 leukemia came out at 26 µM; in the assay with RXF 393 renal, 34 µM; in the assay with SK-MEL-28 melanoma it was 33.7 µM; in the assay with SK-OV-3 ovarian, 31.2 µM.
As for `CCOC(=O)c1c(N2CCOCC2)[nH]c(=O)c(C(c2ccc(OC)cc2)c2c(O)c(C(=O)OCC)c(N3CCOCC3)[nH]c2=O)c1O`, the TGI in the assay on ACHN renal, with HOP-92 NSCLC, with MDA-N, in the assay with MOLT-4 leukemia, with NCI/ADR-RES ovarian and with OVCAR-5 ovarian was greater than 100 µM throughout. The TGI in the assay on RPMI-8226 leukemia, with RXF 393 renal, with SK-MEL-28 melanoma and with SK-OV-3 ovarian was greater than 100 µM throughout.
As for `CCOC(=O)C1=C(C)NC(=S)NC1c1cccc(O)c1` (stereo unspecified), the TGI with ACHN renal is greater than 100 µM; with HOP-92 NSCLC, greater than 84.3 µM; in the assay with MDA-N it was 39.3 µM; in the assay on MOLT-4 leukemia, greater than 100 µM; in the assay on NCI/ADR-RES ovarian, greater than 100 µM; in the assay on OVCAR-5 ovarian it was greater than 100 µM. In addition, the TGI in the assay on RPMI-8226 leukemia was greater than 97 µM; with RXF 393 renal, 65.7 µM; with SK-MEL-28 melanoma, greater than 100 µM; in the assay with SK-OV-3 ovarian it was greater than 100 µM.

Values taken from PubChem BioAssay (NCI).
